Test results from the supplement of paper PMC10307832.

How the values were obtained:
Assay in all cases: relative viability (nuclei count vs DMSO), 5 days (fraction); higher = more cells survive
[1] = compound: Cc1nc(NC(=O)N2CCC[C@H]2C(N)=O)sc1-c1ccnc(C(C)(C)C(F)(F)F)c1 [Alpelisib] + CS(=O)(=O)N1CCN(Cc2cc3nc(-c4cccc5[nH]ncc45)nc(N4CCOCC4)c3s2)CC1 [Pictilisib] (partner 1 µM)
Summary of the method: (§1)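 Lung cancer cell lines in 1536-well plates were dosed by pin tool the day after seeding, either with one drug alone or with a fixed anchor-drug dose plus five library-drug doses (not always all listed) in √10 steps. After 5 days, cells were fixed and their nuclei stained in one step (final 0.05% Triton X-100, 1% formaldehyde, 1 ug/ml Hoechst), then counted on 4× images. Relative viability is the nuclei count in treated wells divided by that in vehicle wells. Values are medians of duplicate plates.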

[2] = compound: Cc1nc(NC(=O)N2CCC[C@H]2C(N)=O)sc1-c1ccnc(C(C)(C)C(F)(F)F)c1 [Alpelisib] + CC(=O)c1c(C)c2cnc(Nc3ccc(N4CCNCC4)cn3)nc2n(C2CCCC2)c1=O [Palbociclib] (partner 0.5 µM)
Summary of the method: as §1

[3] = compound: Cc1nc(NC(=O)N2CCC[C@H]2C(N)=O)sc1-c1ccnc(C(C)(C)C(F)(F)F)c1 [Alpelisib] + Cc1cc(Nc2cc(N3CCN(C)CC3)nc(Sc3ccc(NC(=O)C4CC4)cc3)n2)n[nH]1 [Tozasertib] (partner 0.1 µM)
Summary of the method: as §1

[4] = compound: COc1cccc2cc(-c3nc([C@H]4CC[C@H](C(=O)O)CC4)n4ncnc(N)c34)[nH]c12 [OSI-027] + C[C@@H](Oc1cc(-c2cnn(C3CCNCC3)c2)cnc1N)c1c(Cl)ccc(F)c1Cl [Crizotinib] (partner 1 µM)
Summary of the method: as §1

Cell Line	relative viability ([1]; first compound 0.04 µM)	relative viability ([1]; first compound 0.1265 µM)	relative viability ([1]; first compound 0.4 µM)	relative viability ([1]; first compound 1.265 µM)	relative viability ([1]; first compound 4 µM)	relative viability ([2]; first compound 0.04 µM)	relative viability ([2]; first compound 0.1265 µM)	relative viability ([2]; first compound 0.4 µM)	relative viability ([2]; first compound 1.265 µM)	relative viability ([2]; first compound 4 µM)	relative viability ([3]; first compound 0.04 µM)	relative viability ([3]; first compound 0.1265 µM)	relative viability ([3]; first compound 0.4 µM)	relative viability ([3]; first compound 1.265 µM)	relative viability ([3]; first compound 4 µM)	relative viability ([4]; first compound 0.01 µM)	relative viability ([4]; first compound 0.03162 µM)	relative viability ([4]; first compound 0.1 µM)	relative viability ([4]; first compound 0.3162 µM)	relative viability ([4]; first compound 1 µM)
LOU-NH91	0.537	0.504	0.559	0.52	0.457	0.586	0.511	0.547	0.511	0.496	0.689	0.643	0.656	0.563	0.443	0.73	0.726	0.693	0.681	0.508
LU99A	0.293	0.278	0.374	0.296	0.251	0.374	0.379	0.363	0.259	0.22	0.283	0.26	0.308	0.259	0.23	0.522	0.522	0.46	0.313	0.208
LXF-289	0.762	0.805	0.855	0.707	0.733	0.55	0.562	0.653	0.534	0.604	0.21	0.182	0.249	0.134	0.128	0.859	0.827	0.892	0.909	0.759
NCI-H23	0.605	0.493	0.528	0.419	0.464	0.59	0.434	0.461	0.305	0.313	0.39	0.428	0.459	0.302	0.255	0.482	0.416	0.535	0.525	0.293
NCI-H322M	0.491	0.553	0.544	0.473	0.478	0.47	0.493	0.453	0.389	0.309	0.496	0.435	0.515	0.383	0.284	0.86	0.929	0.951	0.947	0.775
NCI-H358	0.382	0.316	0.379	0.268	0.205	0.118	0.104	0.139	0.103	0.103	0.111	0.114	0.116	0.0852	0.0831	0.566	0.509	0.552	0.704	0.348
NCI-H441	0.438	0.448	0.547	0.382	0.41	0.225	0.166	0.182	0.14	0.111	0.629	0.537	0.693	0.418	0.366	0.679	0.613	0.633	0.604	0.338
NCI-H460	0.388	0.389	0.378	0.345	0.297	0.338	0.155	0.166	0.0802	0.114	0.153	0.44	0.563	0.181	0.241	0.888	0.714	1.06	0.759	0.184
NCI-H520	0.244	0.316	0.318	0.304	0.289	0.241	0.235	0.195	0.19	0.189	0.449	0.461	0.462	0.351	0.309	0.813	0.848	0.876	0.424	0.286
NCI-H647	0.446	0.385	0.402	0.294	0.378	0.322	0.447	0.421	0.289	0.275	0.416	0.322	0.419	0.102	0.26	1.12	1.2	1.07	0.701	0.456
NCI-H650	0.756	0.804	1.09	0.746	0.808	0.315	0.345	0.316	0.263	0.265	0.705	0.758	0.798	0.54	0.573	0.733	0.583	0.582	0.469	0.336
NCI-H661	0.374	0.367	0.475	0.506	0.346	0.365	0.367	0.411	0.412	0.359	0.369	0.362	0.348	0.337	0.323	0.998	1.1	1.14	1.15	0.645
NCI-H727	0.302	0.462	0.404	0.325	0.373	0.569	0.584	0.702	0.452	0.523	0.749	0.584	0.641	0.575	0.459	0.626	0.862	0.798	0.655	0.517
NCI-H838	0.439	0.471	0.427	0.47	0.434	0.246	0.222	0.24	0.18	0.182	0.279	0.25	0.277	0.215	0.247	0.803	0.696	0.599	0.447	0.367
NCI-H1355	0.444	0.568	0.436	0.521	0.425	0.403	0.412	0.377	0.341	0.267	0.539	0.489	0.528	0.441	0.373	0.969	0.937	0.998	0.847	0.276
NCI-H1437	0.416	0.482	0.441	0.37	0.335	0.327	0.314	0.356	0.264	0.314	0.41	0.394	0.417	0.336	0.306	0.987	0.966	0.995	0.944	0.441
